Measured values taken from patent US4689344A, “Long-chain α,ω-dicarboxylic acids and derivatives thereof and pharmaceutical compositions containing them” (Epis S.A., priority 1981, dated 1987).
Values joined by “and” are separate entries in the source; they are usually repeats but may differ in a detail not shown here. Identical values can stand only once.

Columns and labels:
liver triglyceride = assay: Liver triglyceride content of rats fed carbohydrate-rich diet; assay type: in vivo, rat; conditions: for Reduction in liver triglyceride content (FIG. 4): carbohydrate-rich diet, compared to control group=100%
[1] = test system: liver total lipid, triglyceride and cholesterol; assay: 3H2O incorporation into liver lipids in vivo (total lipid, triglyceride, cholesterol); set-up: species or system rat; conditions: n = 5
Procedure: ^3 H2 O incorporation into liver lipids in vico (in μmole/gr liver) was tested in rats fed for 3 days a single daily meal of a high carbohydrate diet containing 0.25% of the active compound of Example 4.
The procedure of Experiment I(b) was repeated for 5 days.
(§1) Rats that have previously been starved for 48 hours, were meal-fed or fed ad libitum a high carbohydrate, fat-free diet for 3-5 days, the diet being supplemented with the active compounds of formula (I) at dosages of 25-250 mg per Kg body weight per day. The biological effects in-vivo were evaluated by following the rate of incorporation of injected radioactive precursors (mainly ^3 H2 O) into liver and adipose tissue lipids and comparing the results observed with those obtained from groups of non-treated rats ("control groups"). Dose-response curves were plotted.

[2] = test system: neutral fat in liver and adipose tissue and liver cholesterol; assay: 3H2O incorporation into neutral fat in liver and adipose tissue and into liver cholesterol in vivo; set-up: species or system rat
Procedure: as §1
Incorporation of ^3 H2 O into neutral fat in liver and adipose tissue and into liver cholesterol in vivo.
^3 H2 O incorporation into liver and adipose tissue lipids in vivo was tested in rats fed a high carbohydrate diet ad libitum for three days, supplemented with varying proportions (in percent of the diet) of the active compounds of Examples 4, 5 and 9. ^3 H2 O was then administered to the animals and the rates of incorporation of tritium (in μmole/gr/60 min) into various lipid fractions in liver and adipose tissue were determined and compared to the tritium incorporation under identical conditions in the control groups of rats.

serum lipids [3] = assay: Serum lipids in rats fed high carbohydrate, fat-free diet; assay type: in vivo, rat
Procedure: as §1
The hypolipidemic effect was followed by measuring the triglycerides and cholesterol content in serum of treated rats as compared to non-treated rats.
Rats starved for 48 hours were fed a high carbohydrate, fat-free diet ad libitum for 3 or 5 days, supplemented with the active compound of Example 4 at the proportions shown in the following Table III. The serum lipids were determined in the treated rats and compared to a non-treated control group.
(§2) Rats starved for 48 hours were fed a high carbohydrate, fat-free diet supplemented with 0.25% of the active compound of Example 5 for 3 days ad libitum.

serum lipoprotein = assay: Serum lipoprotein profile; assay type: in vivo, rat
Procedure: as §2

LD50 in rats (p.o.) = conditions: rat, in vivo, po
[4] = test system: oxidation of glucose, palmitate or acetate to CO2; assay: Oxidation of glucose, palmitate or acetate to CO2 in vivo; set-up: species or system rat; conditions: rats, additional experiments
serum lipids [5] = assay: Serum triglyceride and cholesterol levels in Psamomys Obesus; assay type: in vivo; conditions: Table VI, young animals, 0.1% in diet, 140 days, n = 7
Procedure: (§3) Psamomys Obesus were fed "Amrod 935" Purina Chow diet supplemented with 0.1% of the active compound of Example 4, ad libitum, for periods of 80 or 140 days. The biological effects of the active compound in vivo were evaluated as reported in the following experiments.
Groups of young and old Psamomys were fed the above described diet for 140 and 80 days, respectively, whereafter the serum triglyceride and cholesterol levels were determined.

[6] = Body weight of Psamomys Obesus; assay type: in vivo; conditions: Table VII; for Weight gain (gr) average: 0.1% in diet
Procedure: as §3
The above experiment was repeated with groups of young and old Psamomys and the body weight determined.

glucose tolerance = assay: Glucose tolerance test (GTT) in diabetic Psamomys Obesus; assay type: in vivo; set-up: Sum of glucose values at 0, 1, 2, 3h, Treatment / Sum of glucose values at 0, 1, 2, 3h, Elimination of Treatment: unit not given here; conditions: for Sum of glucose values at 0, 1, 2, 3h, Treatment: 0.1% in diet 30-70 days; for Sum of glucose values at 0, 1, 2, 3h, Elimination of Treatment: after return to normal diet
Procedure: as §3
Six Psamomys Obesus fed Purina Chow diet ad libitum were selected for their diabetic trait by following their glucose tolerance test (GTT). The selected animals were then treated by feeding the same Purina diet supplemented with 0.1% of the active compound of Example 4 for periods varying between 30-70 days. The GTT was followed periodically throughout this period, as well as for 50 more days after the drug-supplemented diet had been replaced with the normal diet. A diagram of the GTT curves obtained with one representative animal is shown in FIG. 6 of the attached drawings. The GTT values for all six animals are shown in the following Table VIII as the sum of the glucose values observed at 0^h, 1^h, 2^h, 3^h.

serum insulin = assay: Serum insulin levels in diabetic Psamomys Obesus; assay type: in vivo; conditions: non-treated diabetic animals 40-200 uu/ml
[7] = test system: diabetes induced by steptozocin; assay: Effect on diabetes induced by steptozocin in rats; assay type: in vivo, rat
[8] = test system: GT of non-diabetic Psamomys; assay: Effect on GT of non-diabetic Psamomys; assay type: in vivo

## CC(C)(CCCCCCCCCCC(C)(C)C(Br)C(=O)O)C(Br)C(=O)O (centres unmarked) [Example 9, 2,15-Dibromo-3,3,14,14-tetramethyl-hexadecane-1,16-dioic acid]
Liver triglyceride
  Reduction in liver triglyceride content (FIG. 4): reduction in liver triglyceride content

## CC(C)(CCCCCCCCCCC(C)(C)CC(=O)O)CC(=O)O [Example 4, 3,3,14,14-Tetramethyl-hexadecane-1,16-dioic acid]
[1]; Table I, 3 days, single daily meal, 0.25% in high carbohydrate diet, non-treated 2.7 ± 1.1
  3H2O incorporation into liver cholesterol: 0.8 ± 0.2 μmole/gr liver
[1]; Table I, 3 days, single daily meal, 0.25% in high carbohydrate diet, non-treated 107 ± 21
  3H2O incorporation into liver triglyceride: 19 ± 2 μmole/gr liver
[1]; Table I, 3 days, single daily meal, 0.25% in high carbohydrate diet, non-treated 157 ± 34
  3H2O incorporation into liver total lipid: 47 ± 5 μmole/gr liver
[1]; Table II, 5 days, procedure of Experiment I(b), non-treated 2.8 ± 0.8
  3H2O incorporation into liver cholesterol: 1.4 ± 0.4 μmole/gr liver
[1]; Table II, 5 days, procedure of Experiment I(b), non-treated 71 ± 12
  3H2O incorporation into liver triglyceride: 20 ± 7 μmole/gr liver
[1]; Table II, 5 days, procedure of Experiment I(b), non-treated 107 ± 18
  3H2O incorporation into liver total lipid: 53 ± 13 μmole/gr liver
[2]; 100 mg/Kg body wt/day
  Inhibition of in vivo incorporation of 3H2O into cholesterol in liver: 50%
  Inhibition of in vivo incorporation of 3H2O into neutral fat (diglycerides, triglycerides) in liver: 50%
[2]; 250 mg/Kg body wt/day
  Inhibition of in vivo incorporation of 3H2O into cholesterol in liver: 80%
  Inhibition of in vivo incorporation of 3H2O into neutral fat (diglycerides, triglycerides) in liver: 80%
[2]; adipose tissue
  In vivo incorporation of 3H2O into neutral fat in adipose tissue: block
Serum lipids [3]; Table III, 0.06% of diet, ad libitum 3 or 5 days, n = 5, non-treated 41 ± 6
  Serum triglycerides: 15 ± 4 mg %
Serum lipids [3]; Table III, 0.06% of diet, ad libitum 3 or 5 days, n = 5, non-treated 64 + 10
  Serum cholesterol: 38 ± 5 mg %
Serum lipids [3]; Table III, 0.15% of diet, ad libitum 3 or 5 days, n = 5, non-treated 41 ± 6
  Serum triglycerides: 21 ± 4 mg %
Serum lipids [3]; Table III, 0.15% of diet, ad libitum 3 or 5 days, n = 5, non-treated 64 + 10
  Serum cholesterol: 32 ± 5 mg %
Serum lipids [3]; Table III, 0.25% of diet, ad libitum 3 or 5 days, n = 5, non-treated 41 ± 6
  Serum triglycerides: 15 ± 4 mg %
Serum lipids [3]; Table III, 0.25% of diet, ad libitum 3 or 5 days, n = 5, non-treated 64 + 10
  Serum cholesterol: 31 ±3 mg %
Serum lipids [3]; summary, rats
  Decrease in serum cholesterol: 50%
  Decrease in serum glycerides: up to 60%
Serum lipoprotein; summary, rats
  Change in the serum lipoprotein profile: significant change in the serum lipoprotein profile
LD50 in rats (p.o.)
  LD50: > 7000 mg/kg
Liver triglyceride
  Reduction in liver triglyceride content (FIG. 4): reduction in liver triglyceride content
Liver triglyceride; summary, rats
  Decrease in the triglyceride content of the liver: 30-50%
[4]
  Oxidation of glucose, palmitate or acetate to CO2 in vivo: does not affect
Serum lipids [5]; non-treated 65 ± 7
  Serum cholesterol: 46 ± 7 mg %
Serum lipids [5]; non-treated 205 ± 29
  Serum triglycerides: 62 ± 15 mg %
[6]; old animals, initial 254 ± 52, non-treated gain 11 ± 13
  Weight gain (gr) average: -26 ± 8 gr
[6]; young animals, n = 7, initial 92 ± 19, non-treated gain 57 ± 33
  Weight gain (gr) average: 36 ± 12 gr
[6]; young animals, individual values, non-treated 38, 38, 40, 55, 116
  Weight gain (gr): 25 gr and 29 gr and 31 gr and 32 gr and 33 gr and 38 gr and 62 gr
[6]; young animals, siblings a, non-treated sibling 55
  Siblings' weight grain (gr): 25 gr and 33 gr
[6]; young animals, siblings b, non-treated sibling 116
  Siblings' weight grain (gr): 31 gr and 38 gr
Glucose tolerance; 0.1% in diet, 30-70 days
  Correction of the GTT curve: correction of the GTT curve in 5 or 6 test animals
Glucose tolerance; Psamomys I, pretreatment 779, 1082
  Sum of glucose values at 0, 1, 2, 3h, Treatment: 364
Glucose tolerance; Psamomys II, pretreatment 947, 980, 958
  Sum of glucose values at 0, 1, 2, 3h, Treatment: 442
Glucose tolerance; Psamomys III, pretreatment 790
  Sum of glucose values at 0, 1, 2, 3h, Treatment: 296 and 329 and 326
Glucose tolerance; Psamomys III
  Sum of glucose values at 0, 1, 2, 3h, Elimination of Treatment: 849
Glucose tolerance; Psamomys IV, pretreatment 992
  Sum of glucose values at 0, 1, 2, 3h, Treatment: 358 and 336 and 465
Glucose tolerance; Psamomys IV
  Sum of glucose values at 0, 1, 2, 3h, Elimination of Treatment: 1049
Glucose tolerance; Psamomys V, pretreatment 867
  Sum of glucose values at 0, 1, 2, 3h, Treatment: 434 and 257 and 388
Glucose tolerance; Psamomys V
  Sum of glucose values at 0, 1, 2, 3h, Elimination of Treatment: 470
Glucose tolerance; Psamomys VI, pretreatment 717
  Sum of glucose values at 0, 1, 2, 3h, Treatment: 555
Glucose tolerance; after termination of the treatment
  Diabetic trait after termination of the treatment: revert to their original diabetic trait
Serum insulin
  Serum insulin levels during the treatment period: lower than 40 uu/ml
[7]
  Effect on diabetes induced by steptozocin: affects neither
[8]
  Effect on GT of non-diabetic Psamomys: affects neither

## CC(C)(CCCCCCCCCCCCC(C)(C)CC(=O)O)CC(=O)O [Example 5, 3,3,16,16-Tetramethyl-octadecane-1,18-dioic acid]
Serum lipids [3]; Table IV, 0.25% of diet, 3 days ad libitum, n = 9, non-treated 48 ± 6
  Serum triglycerides: 33 ± 3 mg %
Serum lipids [3]; Table IV, 0.25% of diet, 3 days ad libitum, n = 12, non-treated 80 ± 12
  Serum cholesterol: 40 ± 11 mg %
Serum lipoprotein; Table V, 0.25% of diet, 3 days, non-treated 1.05
  HDL (VLDL + LDL): 1.50
Serum lipoprotein; Table V, 0.25% of diet, 3 days, non-treated 19.00
  LDL cholesterol: 6.00 mg %
Serum lipoprotein; Table V, 0.25% of diet, 3 days, non-treated 23.00
  VLDL cholesterol: 10.00 mg %
Serum lipoprotein; Table V, 0.25% of diet, 3 days, non-treated 43.00
  HDL cholesterol: 24.00 mg %
Liver triglyceride
  Reduction in liver triglyceride content (FIG. 4): reduction in liver triglyceride content
